Results reported in patent US8653089B2, “Heterocyclic compounds and methods of use” (F. Hoffmann-La Roche AG, priority 2011, dated 2014).

These compounds were tested on production of CD69 by B lymphocytes in human whole blood activated by crosslinking surface IgM (assay: CD69 human whole blood assay (Example 903), FACS). Details: B lymphocytes activated with goat F(ab')2 anti-human IgM, read-out: CD69 Hu Blood FACS IC50.
Type: cell-based
Description: There is good evidence that B-cells play a key role in the pathogenesis of autoimmune and/or inflammatory disease. Protein-based therapeutics that deplete B cells such as Rituxan are effective against autoantibody-driven inflammatory diseases such as rheumatoid arthritis (Rastetter et al. (2004) Annu Rev Med 55:477). CD69 is the early activation marker in leukocytes including T cells, thymocytes, B cells, NK cells, neutrophils, and eosinophils. The CD69 human whole blood assay (Example 903) determines the ability of compounds to inhibit the production of CD69 by B lymphocytes in human whole blood activated by crosslinking surface IgM with goat F(ab′)2 anti-human IgM.

| SMILES | IC50 [nM] |
| --- | --- |
| OCC(Nc1ncnc2nc[nH]c12)c1nc2ccc(F)cc2n1-c1ccccc1 (centres unmarked) [Example 172, 2-(6-Fluoro-1-phenyl-1H-benzoimidazol-2-yl)-2-(7H-purin-6-ylamino)-ethanol] | 175 |
| CC(Nc1ncnc2[nH]cnc12)c1nc2ccc(F)cc2n1-c1cccnc1 (centres unmarked) [Example 176, [1-(6-Fluoro-1-pyridin-3-yl-1H-benzoimidazol-2-yl)-ethyl]-(9H-purin-6-yl)-amine] | 62.9 |
| CC(Nc1ncnc2[nH]cnc12)c1nc2ccc(F)cc2n1-c1ccccn1 (centres unmarked) [Example 182, [1-(6-Fluoro-1-pyridin-2-yl-1H-benzoimidazol-2-yl)-ethyl]-(9H-purin-6-yl)-amine] | 67.1 |
| CC(Nc1ncnc2[nH]cnc12)c1nc2ccc(F)cc2n1-c1ccc(F)cc1 (centres unmarked) [Example 186, {1-[6-Fluoro-1-(4-fluoro-phenyl)-1H-benzoimidazol-2-yl]-ethyl}-(9H-purin-6-yl)-amine] | 134 |
| CC(Nc1ncnc2[nH]cnc12)c1nc2ccc(F)c(C#N)c2n1-c1ccccc1 (centres unmarked) [Example 189, 5-Fluoro-3-phenyl-2-[1-(9H-purin-6-ylamino)-ethyl]-3H-benzoimidazole-4-carbonitrile] | 39.5 |
| CC(Nc1ncnc2[nH]cnc12)c1nc2ccc(F)cc2n1-c1ccccn1 (centres unmarked) [Example 210, [1-(6-Fluoro-1-pyridin-2-yl-1H-benzoimidazol-2-yl)-ethyl]-(9H-purin-6-yl)-amine] | 20.2 |
| CC(Nc1ncnc2[nH]cnc12)c1nc2ccc(F)cc2n1-c1cccnc1 (centres unmarked) [Example 220, [1-(6-Fluoro-1-pyridin-3-yl-1H-benzoimidazol-2-yl)-ethyl]-(9H-purin-6-yl)-amine] | 12.7 |
| CC(Nc1ncnc2[nH]cnc12)c1nc2ccc(F)cc2n1-c1ccc(C#N)cc1 (centres unmarked) [Example 248, 4-{6-Fluoro-2-[1-(9H-purin-6-ylamino)-ethyl]-benzoimidazol-1-yl}-benzonitrile] | 78.9 |

Same assay, conditions: Homo sapiens, Lymphocyte, B lymphocytes activated with goat F(ab')2 anti-human IgM, read-out: CD69 Hu Blood FACS IC50

| SMILES | IC50 [nM] |
| --- | --- |
| COCC(Nc1ncnc2nc[nH]c12)c1nc2ccc(F)cc2n1-c1ccccc1 (centres unmarked) [Example 171, [1-(6-Fluoro-1-phenyl-1H-benzoimidazol-2-yl)-2-methoxy-ethyl]-(7H-purin-6-yl)-amine] | 106 |
| C[C@H](Nc1ncnc2[nH]cnc12)c1nc2ccc(Cl)cc2n1-c1ccccc1 [Example 173, [(S)-1-(6-Chloro-1-phenyl-1H-benzoimidazol-2-yl)-ethyl]-(9H-Aurin-6-yl)-amine] | 301 |
| C[C@H](Nc1ncnc2[nH]cnc12)c1nc2ccc(F)c(Br)c2n1-c1ccccc1 [Example 178, [(S)-1-(7-Bromo-6-fluoro-1-phenyl-1H-benzoimidazol-2-yl)-ethyl]-(9H-purin-6-yl)-amine] | 80.6 |
| CC(Nc1ncnc2[nH]cnc12)c1nc2ccc(F)c(Cl)c2n1-c1ccccc1 (centres unmarked) [Example 179, [1-(7-Chloro-6-fluoro-1-phenyl-1H-benzoimidazol-2-yl)-ethyl]-(9H-purin-6-yl)-amine] | 146 |
| Cc1c(F)ccc2nc([C@H](C)Nc3ncnc4[nH]cnc34)n(-c3ccccc3)c12 [Example 183, [(S)-1-(6-Fluoro-7-methyl-1-phenyl-1H-benzoimidazol-2-yl)-ethyl]-(9H-purin-6-yl)-amine] | 26.2 |
| C[C@H](Nc1ncnc2[nH]cnc12)c1nc2ccc(F)cc2n1-c1cccc(F)c1 [Example 185, {(S)-1-[6-Fluoro-1-(3-fluoro-phenyl)-1H-benzoimidazol-2-yl]-ethyl}-(9H-purin-6-yl)-amine] | 52.1 |
| OCC[C@H](Nc1ncnc2[nH]cnc12)c1nc2ccc(F)cc2n1-c1ccccc1 [Example 187, (S)-3-(6-Fluoro-1-phenyl-1H-benzoimidazol-2-yl)-3-(9H-purin-6-ylamino)-propan-1-ol] | 119 |
| COC[C@H](Nc1ncnc2[nH]cnc12)c1nc2ccc(F)c(C)c2n1-c1ccccc1 [Example 188, [(R)-1-(6-Fluoro-7-methyl-1-phenyl-1H-benzoimidazol-2-yl)-2-methoxy-ethyl]-(9H-purin-6-yl)-amine] | 149 |
| COCC(Nc1ncnc2[nH]cnc12)c1nc2ccc(F)c(F)c2n1-c1ccccc1 (centres unmarked) [Example 190, [1-(6,7-Difluoro-1-phenyl-1H-benzoimidazol-2-yl)-2-methoxy-ethyl]-(9H-purin-6-yl)-amine] | 247 |
| CC(Nc1ncnc2[nH]cnc12)c1nc2ccc(F)cc2n1-c1ccccc1 (centres unmarked) [Example 194, [1-(6-Fluoro-1-phenyl-1H-benzoimidazol-2-yl)-ethyl]-(9H-purin-6-yl)-amine] | 50.8 |
| CC(Nc1ncnc2[nH]cnc12)c1nc2ccc(F)cc2n1-c1ccccc1F (centres unmarked) [Example 195, {1-[6-Fluoro-1-(2-fluoro-phenyl)-1H-benzoimidazol-2-yl]-ethyl}-(9H-purin-6-yl)-amine] | 53 |
| COC(=O)c1c(F)ccc2nc(C(C)Nc3ncnc4[nH]cnc34)n(-c3ccccc3)c12 (centres unmarked) [Example 197, 5-Fluoro-3-phenyl-2-[1-(9H-purin-6-ylamino)-ethyl]-3H-benzoimidazole-4-carboxylic acid methyl ester] | 31.6 |
| CC(Nc1ncnc2[nH]cnc12)c1nc2ccc(F)c(C3CC3)c2n1-c1ccccc1 (centres unmarked) [Example 198, [1-(7-Cyclopropyl-6-fluoro-1-phenyl-1H-benzoimidazol-2-yl)-ethyl]-(9H-purin-6-yl)-amine] | 10.9 |
| C[C@H](Nc1ncnc2[nH]cnc12)c1nc2ccc(F)cc2n1C1CCCCC1 [Example 201, [(S)-1-(1-Cyclohexyl-6-fluoro-1H-benzoimidazol-2-yl)-ethyl]-(9H-purin-6-yl)-amine] | 118 |
| CC(Nc1ncnc2[nH]cnc12)c1nc2ccc(F)c(C(=O)N3CCN(C)CC3)c2n1-c1ccccc1 (centres unmarked) [Example 202, {5-Fluoro-3-phenyl-2-[1-(9H-purin-6-ylamino)-ethyl]-3H-benzoimidazol-4-yl}-(4-methyl-piperazin-1-yl)-methanone] | 14.1 |
| CC(Nc1ncnc2[nH]cnc12)c1nc2ccc(F)c(C(=O)N3CCOCC3)c2n1-c1ccccc1 (centres unmarked) [Example 203, {5-Fluoro-3-phenyl-2-[1-(9H-purin-6-ylamino)-ethyl]-3H-benzoimidazol-4-yl}-morpholin-4-yl-methanone] | 2.83 |
| CC(Nc1ncnc2[nH]cnc12)c1nc2ccc(F)c(C(=O)N(C)C)c2n1-c1ccccc1 (centres unmarked) [Example 204, 5-Fluoro-3-phenyl-2-[1-(9H-purin-6-ylamino)-ethyl]-3H-benzoimidazole-4-carboxylic acid dimethylamide] | 67.5 |
| CCC(Nc1ncnc2[nH]cnc12)c1nc2ccc(F)cc2n1-c1cccnc1 (centres unmarked) [Example 205, [1-(6-Fluoro-1-pyridin-3-yl-1H-benzoimidazol-2-yl)-propyl]-(9H-purin-6-yl)-amine] | 42.9 |
| CC(C)C(Nc1ncnc2[nH]cnc12)c1nc2ccc(F)cc2n1-c1cccnc1 (centres unmarked) [Example 206, [1-(6-Fluoro-1-pyridin-3-yl-1H-benzoimidazol-2-yl)-2-methyl-propyl]-(9H-purin-6-yl)-amine] | 54.7 |
| COc1ccc(-n2c(C(C)Nc3ncnc4[nH]cnc34)nc3ccc(F)cc32)cn1 (centres unmarked) [Example 207, {1-[6-Fluoro-1-(6-methoxy-pyridin-3-yl)-1H-benzoimidazol-2-yl]-ethyl}-(9H-purin-6-yl)-amine] | 798 |
| CC(Nc1ncnc2[nH]cnc12)c1nc2ccc(F)cc2n1-c1ccc(F)cn1 (centres unmarked) [Example 208, {1-[6-Fluoro-1-(5-fluoro-pyridin-2-yl)-1H-benzoimidazol-2-yl]-ethyl}-(9H-purin-6-yl)-amine] | 206 |
| CCC(Nc1ncnc2nc[nH]c12)c1nc2ccc(F)cc2n1-c1ccccc1 (centres unmarked) [Example 212, [1-(6-Fluoro-1-phenyl-1H-benzoimidazol-2-yl)-propyl]-(7H-purin-6-yl)-amine] | 55.5 |
| CC(Nc1ncnc2[nH]cnc12)c1nc2ccc(F)c(C#N)c2n1-c1ccccc1 (centres unmarked) [Example 217, 5-Fluoro-3-phenyl-2-[1-(9H-purin-6-ylamino)-ethyl]-3H-benzoimidazole-4-carbonitrile] | 43.3 |
| CC(Nc1ncnc2[nH]cnc12)c1nc2ccc(F)cc2n1-c1ccc(F)cc1 (centres unmarked) [Example 221, {1-[6-Fluoro-1-(4-fluoro-phenyl)-1H-benzoimidazol-2-yl]-ethyl}-(9H-purin-6-yl)-amine] | 152 |
| OCC(Nc1ncnc2nc[nH]c12)c1nc2ccc(F)cc2n1-c1ccccc1 (centres unmarked) [Example 224, 2-(6-Fluoro-1-phenyl-1H-benzoimidazol-2-yl)-2-(7H-purin-6-ylamino)-ethanol] | 129 |
| CC(Nc1ncnc2[nH]cnc12)c1nc2ccc(F)cc2n1-c1ccc(C#N)cc1 (centres unmarked) [Example 227, 4-{6-Fluoro-2-[1-(9H-purin-6-ylamino)-ethyl]-benzoimidazol-1-yl}-benzonitrile] | 78.3 |
| CC[C@H](Nc1ncnc2[nH]cnc12)c1nc2ccc(F)c(C#N)c2n1-c1ccccc1 [Example 244, 5-Fluoro-3-phenyl-2-[(S)-1-(9H-purin-6-ylamino)-propyl]-3H-benzoimidazole-4-carbonitrile] | 79.3 |
| C[C@H](Nc1ncnc(N)c1C#N)c1nc2ccc(F)cc2n1-c1ccccc1 [Example 246, 4-Amino-6-[(S)-1-(6-fluoro-1-phenyl-1H-benzoimidazol-2-yl)-ethylamino]-pyrimidine-5-carbonitrile] | 16.7 |
| CC[C@H](Nc1ncnc2[nH]cnc12)c1nc2ccc(F)cc2n1-c1ccccn1 [Example 247, [(S)-1-(6-Fluoro-1-pyridin-2-yl-1H-benzoimidazol-2-yl)-propyl]-(9H-purin-6-yl)-amine] | 405 |
| C[C@H](Nc1ncnc2[nH]cnc12)c1nc2ccc(F)cc2n1[C@@H]1CCCN(CCO)C1 [Example 256, 2-((R)-3-{6-Fluoro-2-[(S)-1-(9H-purin-6-ylamino)-ethyl]-benzoimidazol-1-yl}-piperidin-1-yl)-ethanol] | 68.3 |
